Reference: ChEMBL document CHEMBL4346659, “Design, synthesis and evaluation of novel 7H-pyrrolo[2,3-d]pyrimidin-4-amine derivatives as potent, selective and reversible Bruton's tyrosine kinase (BTK) inhibitors for the treatment of rheumatoid arthritis” (Eur J Med Chem, 2019)

Experiments:
[1] = system: Ramos; assay: Antiproliferative activity against human Ramos cells; assay type: functional, cell-based; design: fold change (FC): reference not given here; conditions: for IC50: Homo sapiens, Ramos
[2] = biological target: T1, Tyrosine-protein kinase BTK (Homo sapiens, UniProt Q06187); assay: Inhibition of BTK (unknown origin) at 1 uM in the presence of ATP by caliper mobility shift assay relative to control
T1 sequence (Q06187 whole entry): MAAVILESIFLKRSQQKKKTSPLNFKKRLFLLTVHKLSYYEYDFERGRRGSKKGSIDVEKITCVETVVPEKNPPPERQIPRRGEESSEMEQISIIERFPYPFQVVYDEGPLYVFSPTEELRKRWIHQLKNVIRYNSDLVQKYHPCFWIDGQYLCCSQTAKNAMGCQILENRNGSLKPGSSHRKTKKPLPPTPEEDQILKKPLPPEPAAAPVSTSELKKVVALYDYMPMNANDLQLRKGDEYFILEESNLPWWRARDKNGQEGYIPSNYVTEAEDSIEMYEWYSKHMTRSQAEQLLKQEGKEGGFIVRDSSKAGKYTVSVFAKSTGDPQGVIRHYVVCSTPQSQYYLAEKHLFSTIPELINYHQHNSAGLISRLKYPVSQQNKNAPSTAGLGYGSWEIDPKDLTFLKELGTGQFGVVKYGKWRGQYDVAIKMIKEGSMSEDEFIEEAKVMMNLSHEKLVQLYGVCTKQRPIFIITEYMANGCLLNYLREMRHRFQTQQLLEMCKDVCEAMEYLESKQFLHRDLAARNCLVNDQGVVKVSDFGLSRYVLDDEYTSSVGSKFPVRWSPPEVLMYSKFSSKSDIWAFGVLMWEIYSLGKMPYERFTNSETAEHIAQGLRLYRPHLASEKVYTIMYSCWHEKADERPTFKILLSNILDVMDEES

[3] = system: JeKo-1; assay: Antiproliferative activity against human JeKo1 cells; assay type: functional, cell-based; design: fold change (FC): reference not given here; conditions: for IC50: Homo sapiens, JeKo-1
[4] = system: Daudi; assay: Antiproliferative activity against human Daudi cells; assay type: functional, cell-based; design: fold change (FC): reference not given here; conditions: for IC50: Homo sapiens, Daudi
[5] = biological target: T1, Tyrosine-protein kinase BTK; assay: Inhibition of BTK (unknown origin) at 0.1 uM in the presence of ATP by caliper mobility shift assay relative to control
[6] = biological target: T1, Tyrosine-protein kinase BTK; assay: Inhibition of BTK (unknown origin) in the presence of ATP by caliper mobility shift assay

SMILES	IC50 [1]	inhibition [2]	IC50 [3]	IC50 [4]	inhibition [5]	IC50 [6]	fold change (FC) [1]	fold change (FC) [3]	fold change (FC) [4]
COC(CN1CC[C@H](n2cc(-c3ccc4c(c3)OCO4)c3c(N)ncnc32)C1)OC	24.9 µM	37.1%	2.45 µM	53.5 µM	4.71%	–	–	–	–
Nc1ncnc2c1c(-c1ccc3c(c1)OCO3)cn2[C@H]1CCN(C(=O)c2ccccc2)C1	35.2 µM	29.4%	17 µM	8.26 µM	37.1%	–	–	–	–
Nc1ncnc2c1c(-c1ccc(Oc3ccccc3)cc1)cn2C[C@H]1CCCN1C[C@@H](O)CO	13.5 µM	62.5%	9.54 µM	14.4 µM	23.9%	–	–	–	–
Nc1ncnc2c1c(-c1ccc(Oc3ccccc3)cc1)cn2[C@H]1CCN(C[C@@H]2CO2)C1	6.71 µM	98.1%	1.48 µM	5.48 µM	79.1%	0.0311 µM	–	–	–
COCCN1CC[C@H](n2cc(-c3ccc4c(c3)OCO4)c3c(N)ncnc32)C1	21.2 µM	8.09%	6.74 µM	4.3 µM	14.3%	–	–	–	–
Nc1ncnc2c1c(-c1ccc3c(c1)OCO3)cn2C[C@H]1CCCN(C[C@@H]2CO2)C1	15.1 µM	70.3%	7.96 µM	10.6 µM	34.7%	–	–	–	–
Nc1ncnc2c1c(-c1ccc(Oc3ccccc3)cc1)cn2[C@H]1CCN(C[C@H]2CO2)C1	> 50 µM	90.1%	5.08 µM	15.7 µM	52%	0.0894 µM	3 - 10	3 - 10	3 - 10
CC1(CN2CC[C@H](n3cc(-c4ccc5c(c4)OCO5)c4c(N)ncnc43)C2)COC1	20.4 µM	36.1%	19 µM	44.7 µM	13.9%	> 0.5 µM	–	–	–
Nc1ncnc2c1c(-c1ccc3c(c1)OCO3)cn2[C@H]1CCN(C[C@H]2CO2)C1	5 µM	86.5%	2.28 µM	2.44 µM	62.2%	0.0419 µM	–	–	–
NC(=O)CN1CC[C@H](n2cc(-c3ccc4c(c3)OCO4)c3c(N)ncnc32)C1	13.3 µM	48.6%	4.98 µM	3.45 µM	12.6%	> 0.5 µM	–	–	–
Nc1ncnc2c1c(-c1ccc(C(=O)Nc3ccc(Oc4ccccc4)cc3)cc1)cn2[C@H]1CCN(C[C@@H]2CO2)C1	3.63 µM	36.9%	2.07 µM	4.39 µM	7.58%	–	–	–	–
Nc1ncnc2c1c(-c1ccc3c(c1)OCO3)cn2[C@H]1CCN(C(=O)C2CC2)C1	–	34%	–	–	-3.67%	0.045 µM	–	–	–
Nc1ncnc2c1c(-c1cccc(-n3ncc4ccccc4c3=O)c1)cn2[C@H]1CCN(C[C@@H]2CO2)C1	15.2 µM	17.5%	15.2 µM	14.6 µM	3.41%	–	–	–	–
Nc1ncnc2c1c(-c1cnc3[nH]ccc3c1)cn2C[C@H]1CCCN1C[C@@H]1CO1	–	26.9%	–	–	13.7%	–	–	–	–
Nc1ncnc2c1c(-c1cnc3[nH]ccc3c1)cn2[C@H]1CCN(C[C@@H]2CO2)C1	4.65 µM	46.6%	9.44 µM	2.99 µM	12.8%	–	–	–	–
Nc1ncnc2c1c(-c1ccc3c(c1)OCO3)cn2[C@H]1CCN(Cc2cc(F)cc(F)c2)C1	6.6 µM	30.2%	1.69 µM	11.6 µM	6.07%	–	–	–	–
Nc1ncnc2c1c(-c1cc3ccccc3o1)cn2[C@H]1CCN(C[C@@H]2CO2)C1	6.74 µM	59.1%	2.82 µM	4.51 µM	20.2%	–	–	–	–
CC(C)(C)c1ccc(C(=O)Nc2cccc(-c3cn([C@H]4CCN(C[C@@H]5CO5)C4)c4ncnc(N)c34)c2)cc1	4.82 µM	22.2%	2.54 µM	5.97 µM	2.29%	–	–	–	–
Nc1ncnc2c1c(-c1ccc3c(c1)OCO3)cn2[C@H]1CCN(CC2CO2)C1 (stereo partly specified)	–	96.6%	–	–	70.1%	0.0455 µM	–	–	–
CC(C)(C)c1ccc(CN2CC[C@H](n3cc(-c4ccc5c(c4)OCO5)c4c(N)ncnc43)C2)cc1	4.41 µM	3%	2.07 µM	13.2 µM	0.01%	–	–	–	–
Nc1ncnc2c1c(-c1ccc3c(c1)OCO3)cn2C[C@@H]1CCCN1C[C@@H]1CO1	29 µM	47.6%	21.6 µM	19 µM	13.5%	–	–	–	–
CC(C)(C)c1ccc(C(=O)Nc2ccc(-c3cn([C@H]4CCN(C[C@@H]5CO5)C4)c4ncnc(N)c34)cc2)cc1	2.97 µM	53.8%	3.29 µM	5.98 µM	15.7%	–	–	–	–
CC1(C(=O)N2CC[C@H](n3cc(-c4ccc5c(c4)OCO5)c4c(N)ncnc43)C2)COC1	39 µM	22.4%	36.4 µM	30.5 µM	-0.35%	–	–	–	–

SMILES	IC50 [1]	inhibition [2]	IC50 [3]	IC50 [4]	inhibition [5]	IC50 [6]	fold change (FC) [1]	fold change (FC) [3]	fold change (FC) [4]
Nc1ncnc2c1c(-c1ccc3c(c1)OCO3)cn2[C@H]1CCN(CC2CCCO2)C1 (stereo partly specified)	27.1 µM	18.9%	3.88 µM	25.9 µM	3.01%	–	–	–	–
CN(C)CC(=O)N1CC[C@H](n2cc(-c3ccc4c(c3)OCO4)c3c(N)ncnc32)C1	21 µM	23.7%	28.4 µM	23.1 µM	-0.41%	–	–	–	–
Nc1ncnc2c1c(-c1ccc3c(c1)OCO3)cn2CC1CCCO1 (stereo unspecified)	24.2 µM	21.8%	17.1 µM	20.9 µM	-6.11%	–	–	–	–
Nc1ncnc2c1c(-c1ccc3c(c1)OCO3)cn2[C@H]1CCN(S(=O)(=O)C2CC2)C1	7.79 µM	37.2%	11.8 µM	16.6 µM	1.64%	–	–	–	–
N#CCCN1CC[C@H](n2cc(-c3ccc4c(c3)OCO4)c3c(N)ncnc32)C1	13.2 µM	67.8%	1.84 µM	10.2 µM	21.6%	–	–	–	–
CC(C)(C)c1ccc(COc2ccc(-c3cn([C@H]4CCN(C[C@@H]5CO5)C4)c4ncnc(N)c34)cc2)cc1	4.21 µM	7.63%	5.97 µM	6.97 µM	3.73%	–	–	–	–
Nc1ncnc2c1c(-c1ccc3c(c1)OCO3)cn2C1CCN(C2COC2)CC1	38 µM	45.7%	16.9 µM	24.1 µM	9.5%	–	–	–	–
CCOC(=O)C(C)N1CC[C@H](n2cc(-c3ccc4c(c3)OCO4)c3c(N)ncnc32)C1 (stereo partly specified)	9.92 µM	44.1%	1.21 µM	25.5 µM	5.71%	–	–	–	–
Nc1ncnc2c1c(-c1ccc3c(c1)OCO3)cn2CC1CCN(C[C@@H]2CO2)CC1	10.9 µM	59.9%	15.3 µM	12.5 µM	14.2%	–	–	–	–
Nc1ncnc2c1c(-c1ccc3c(c1)OCO3)nn2C[C@H]1CCCN1C[C@@H]1CO1	47.4 µM	56.7%	43.2 µM	30.5 µM	13.9%	–	–	–	–
C[C@@H]1C[C@H](n2cc(-c3ccc4c(c3)OCO4)c3c(N)ncnc32)CN1C[C@@H]1CO1	7.97 µM	47.1%	4.61 µM	10.9 µM	12.7%	–	–	–	–
Nc1ncnc2c1c(-c1ccc3c(c1)OCO3)cn2[C@H]1CCN(C(=O)c2ccccn2)C1	20.7 µM	28.1%	19.5 µM	12.3 µM	1.45%	–	–	–	–
Nc1ncnc2c1c(-c1ccc3c(c1)OCO3)cn2C1CCN(C[C@@H]2CO2)CC1	32.8 µM	89.4%	12.9 µM	21.3 µM	60.2%	–	–	–	–
Nc1ncnc2c1c(-c1ccc(Oc3ccccc3)cc1)cn2C[C@H]1CCCN1C(CO)CO	15.3 µM	54.7%	14.5 µM	28.2 µM	18.3%	–	–	–	–
Nc1ncnc2c1c(-c1ccc(NC(=O)c3ccccc3)cc1)cn2[C@H]1CCN(C[C@@H]2CO2)C1	2.25 µM	22.9%	5.39 µM	3.18 µM	2.53%	–	–	–	–
CN(C)C(=O)N1CC[C@H](n2cc(-c3ccc4c(c3)OCO4)c3c(N)ncnc32)C1	27.7 µM	42.6%	24.2 µM	14.6 µM	1.87%	–	–	–	–
Nc1ncnc2c1c(-c1ccc3c(c1)OCO3)cn2[C@H]1CCN(CC2CC2)C1	16.9 µM	15.2%	1.45 µM	24.6 µM	0.04%	–	–	–	–
Nc1ncnc2c1c(-c1ccc3c(c1)OCO3)cn2C1=CCN(C[C@@H]2CO2)CC1	2.11 µM	42.6%	12.8 µM	5.02 µM	1.81%	–	–	–	–
Nc1ncnc2c1c(-c1ccc3c(c1)OCO3)cn2C[C@@H]1CCCN(C[C@@H]2CO2)C1	13.1 µM	49.2%	8.85 µM	10.5 µM	16.2%	–	–	–	–
CC(C)(C)c1ccc(Oc2ccc(-c3cn([C@H]4CCN(C[C@@H]5CO5)C4)c4ncnc(N)c34)cc2)cc1	11.2 µM	19.1%	14.8 µM	6.49 µM	5.96%	–	–	–	–
Nc1ncnc2c1c(-c1cc3ccccc3o1)cn2[C@H]1CCN(C[C@H]2CO2)C1	1.65 µM	62.9%	0.63 µM	4.21 µM	17.4%	–	–	–	–
Nc1ncnc2c1c(-c1ccc3c(c1)OCO3)cn2C[C@H]1CCN(C[C@@H]2CO2)C1	27 µM	63.7%	7.25 µM	15 µM	23.9%	–	–	–	–
Nc1ncnc2c1c(-c1ccc3c(c1)OCO3)cn2[C@H]1CCN(CCCO)C1	20.9 µM	22.4%	3.13 µM	29.6 µM	8.43%	–	–	–	–
